Test results: US20090233942A1, “Genetic markers associated with response to antidepressants” (priority 2008, published 2009)

Experiments:
BCLXL expression = settings: rat depression model, chronic administration; cited from earlier work
CYP2C9 = CYP2C9 (Homo sapiens, UniProt P11712); settings: cited from earlier work
c-fos [1] = settings: rat; cited from earlier work
laminin, CAM-L1, pCREB = settings: chronic administration, unstressed rats; cited from earlier work
CYP2C19 = CYP2C19 (Homo sapiens, UniProt P33261); settings: cited from earlier work
GluR1 = settings: cited from earlier work
CYP3A4 = CYP3A4 (Homo sapiens, UniProt P08684); settings: cited from earlier work
c-fos [2] = settings: unstressed rats; cited from earlier work
MAPK1 = settings: cultured rat astrocytes; cited from earlier work
CYP1A2 = biological target: T1, CYP1A2 (Homo sapiens, UniProt P05177); settings: cited from earlier work
T1 sequence (P05177 1-516): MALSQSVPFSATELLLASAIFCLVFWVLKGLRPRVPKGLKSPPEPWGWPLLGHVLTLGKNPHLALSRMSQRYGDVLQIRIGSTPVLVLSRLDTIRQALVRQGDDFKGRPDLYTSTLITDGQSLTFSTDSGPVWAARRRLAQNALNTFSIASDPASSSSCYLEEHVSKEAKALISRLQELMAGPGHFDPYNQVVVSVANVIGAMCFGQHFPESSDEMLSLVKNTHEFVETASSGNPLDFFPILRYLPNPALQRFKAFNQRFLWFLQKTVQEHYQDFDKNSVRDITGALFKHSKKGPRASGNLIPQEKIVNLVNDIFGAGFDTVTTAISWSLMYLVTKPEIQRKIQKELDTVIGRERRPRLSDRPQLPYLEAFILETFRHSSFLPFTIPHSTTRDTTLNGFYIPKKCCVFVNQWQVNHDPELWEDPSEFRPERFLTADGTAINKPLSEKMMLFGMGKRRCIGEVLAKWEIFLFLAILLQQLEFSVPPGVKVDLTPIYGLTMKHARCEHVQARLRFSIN

patients with MDD = assay: Five Phase II studies of vilazodone, eight weeks of treatment; assay type: in vivo, human; settings: active comparator in three Phase II studies
Excerpt: As part of the vilazodone development program, five Phase II studies have been conducted, all in patients with MDD. These studies randomized 2,098 patients for eight weeks of treatment, 1196 of whom received vilazodone.

PLC-β1 knockout mice = settings: cited from earlier work
GluR1, GluR2, and GluR3 = settings: chronic (30 days) administration; mouse nucleus accumbens and dorsal striatum; cited from earlier work
26S proteasome = settings: cited from earlier work
mice = settings: intracerebroventricular injection; cited from earlier work

CYP3A4, sequence (P08684 whole entry): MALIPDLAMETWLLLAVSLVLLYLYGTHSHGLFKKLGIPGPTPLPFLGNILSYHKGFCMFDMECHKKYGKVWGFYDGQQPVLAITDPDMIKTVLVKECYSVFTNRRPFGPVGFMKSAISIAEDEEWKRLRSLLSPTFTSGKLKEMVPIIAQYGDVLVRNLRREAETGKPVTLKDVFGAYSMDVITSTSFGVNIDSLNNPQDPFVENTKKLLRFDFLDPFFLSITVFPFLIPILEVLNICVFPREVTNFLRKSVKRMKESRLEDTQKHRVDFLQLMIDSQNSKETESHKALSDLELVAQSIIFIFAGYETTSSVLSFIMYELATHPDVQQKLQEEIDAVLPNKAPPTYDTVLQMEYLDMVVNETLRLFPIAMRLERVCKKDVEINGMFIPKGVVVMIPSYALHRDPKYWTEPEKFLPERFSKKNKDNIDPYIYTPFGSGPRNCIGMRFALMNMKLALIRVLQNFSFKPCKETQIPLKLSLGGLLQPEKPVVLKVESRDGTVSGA
CYP2C9, sequence (P11712 whole entry): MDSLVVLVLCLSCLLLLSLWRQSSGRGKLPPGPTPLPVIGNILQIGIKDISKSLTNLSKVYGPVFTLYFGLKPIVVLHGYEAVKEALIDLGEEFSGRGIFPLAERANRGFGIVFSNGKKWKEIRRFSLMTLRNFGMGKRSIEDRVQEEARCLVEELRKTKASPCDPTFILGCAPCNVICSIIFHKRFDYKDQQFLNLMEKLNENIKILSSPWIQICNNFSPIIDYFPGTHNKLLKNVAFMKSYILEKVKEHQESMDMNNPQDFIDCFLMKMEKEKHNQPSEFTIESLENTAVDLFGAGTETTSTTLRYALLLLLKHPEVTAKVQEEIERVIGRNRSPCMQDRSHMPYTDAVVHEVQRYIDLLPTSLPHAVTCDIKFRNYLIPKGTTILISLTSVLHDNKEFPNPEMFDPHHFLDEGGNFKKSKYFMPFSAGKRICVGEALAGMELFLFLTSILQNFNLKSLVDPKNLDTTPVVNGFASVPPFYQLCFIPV
CYP2C19, sequence (P33261 whole entry): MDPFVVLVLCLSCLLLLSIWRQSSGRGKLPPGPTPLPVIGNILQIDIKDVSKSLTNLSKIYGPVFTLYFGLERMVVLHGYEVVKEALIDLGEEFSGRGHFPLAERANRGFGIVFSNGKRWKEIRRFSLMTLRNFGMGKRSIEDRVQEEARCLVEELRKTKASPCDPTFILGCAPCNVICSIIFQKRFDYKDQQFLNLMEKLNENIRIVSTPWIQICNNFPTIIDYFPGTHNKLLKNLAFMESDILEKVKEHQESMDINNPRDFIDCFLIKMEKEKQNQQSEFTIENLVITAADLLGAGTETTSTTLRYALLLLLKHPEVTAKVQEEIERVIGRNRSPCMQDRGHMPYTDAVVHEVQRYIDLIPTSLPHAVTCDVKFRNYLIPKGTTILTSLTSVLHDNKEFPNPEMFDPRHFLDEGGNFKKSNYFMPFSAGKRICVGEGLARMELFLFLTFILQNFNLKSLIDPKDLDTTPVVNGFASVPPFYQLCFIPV

N[C@@H]1C[C@H]1c1ccccc1 (racemic) [tranylcypromine]
BCLXL expression in the CA1 and DG subfields (BCLXL expression): increased

CN[C@H]1CC[C@@H](c2ccc(Cl)c(Cl)c2)c2ccccc21 [Sertraline]
inhibition of CYP2C9 (CYP2C9): partially inhibit

CN(C)CCCN1c2ccccc2CCc2ccc(Cl)cc21 [clomipramine]
level of c-fos in the PAG brain region (c-fos [1]): decreased

CNCCCN1c2ccccc2CCc2ccccc21 [desipramine]
laminin and CAM-L1 in hippocampus and frontal cortex (laminin, CAM-L1, pCREB): increased
pCREB (laminin, CAM-L1, pCREB): increased pCREB in the frontal cortex only
level of c-fos in the PAG brain region (c-fos [1]): decreased

CNCCC(Oc1ccc(C(F)(F)F)cc1)c1ccccc1 (stereo not shown) [fluoxetine]
inhibition of CYP2C19 (CYP2C19): inhibit
phosphorylation of GluR1 (GluR1): increase
inhibition of CYP3A4 (CYP3A4): inhibit
c-fos staining in the brain (c-fos [2]): decrease
MAPK1 activation (MAPK1): increased
inhibition of CYP1A2 (CYP1A2): inhibit
Hamilton Depression Scale (HAM-D) total score versus placebo (patients with MDD): did not show a statistically significant improvement

O=C(CCCN1CCC(O)(c2ccc(Cl)cc2)CC1)c1ccc(F)cc1 [haloperidol]
schizophrenic-like behaviors (PLC-β1 knockout mice): rescued

CNCCCC12CCC(c3ccccc31)c1ccccc12 [maprotiline]
GluR1, GluR2, and GluR3 (GluR1, GluR2, and GluR3): increased

CCCCC[C@H](O)/C=C/[C@H]1C(=O)C=C[C@@H]1C/C=C\CCCC(=O)O [prostaglandin J2]
function of the 26S proteasome (26S proteasome): inhibited

CCOc1ccccc1OC(c1ccccc1)C1CNCCO1 (stereo not shown) [reboxetine]
BCLXL expression in the CA1 and DG subfields (BCLXL expression): increased
c-fos staining in the brain (c-fos [2]): decrease

neuropeptide Y [NPY]
antidepressant-like effect (mice): dose dependent antidepressant-like effect
